In publication PMC6429309 (Molecules, 2019):
In brackets after ≈: the same amount, converted by molar mass. Several values for one entry are separate records, joined by “and”; a condition that tells them apart may be missing. Identical values can stand only once.

Tests used:
[1] = tested on: Xanthomonas axonopodis pv. citri (Xac); assay: microbe, parasite or virus in culture; assay type: cell-based; settings: for inhibition at 50 µg/mL / inhibition at 100 µg/mL / EC50: Xanthomonas axonopodis; for inhibition at 50 µg/mL / inhibition at 100 µg/mL: read-out: Antibacterial activity (inhibition rate) against Xac; for EC50: read-out: EC50 against Xac
[2] = tested on: Xanthomonas oryzae pv. oryzae (Xoo); assay: microbe, parasite or virus in culture; assay type: cell-based; settings: for inhibition at 50 µg/mL / inhibition at 100 µg/mL / EC50: Xanthomonas oryzae; for inhibition at 50 µg/mL / inhibition at 100 µg/mL: read-out: Antibacterial activity (inhibition rate) against Xoo; for EC50: read-out: EC50 against Xoo; for Antibacterial activity (inhibition rate) against Xoo / EC50 against Xoo: in vitro; for Antibacterial activity (inhibition rate) against Xoo: strain PXO99A, average of three replicates; for EC50 against Xoo: five concentrations 100-6.25 μg/mL

SMILES: COP(=O)(OC)Oc1ccccc1/C=C/C(=O)/C=C/c1ccccc1Cl [3e]
- inhibition at 50 µg/mL [1]: 67.9 ± 4.3%
- inhibition at 100 µg/mL [1]: 77.6 ± 2.8%
- EC50 [1]: 22.9 µg/mL (≈ 58.3 µM)
- inhibition at 50 µg/mL [2]: 65.3 ± 1.9%
- inhibition at 100 µg/mL [2]: 69.4 ± 0.6%
- EC50 [2]: 46 µg/mL (≈ 117 µM)

SMILES: CCOP(=O)(OCC)Oc1ccccc1/C=C/C(=O)/C=C/c1cccc(C(F)(F)F)c1 [3q]
- inhibition at 50 µg/mL [1]: 5.4 ± 2.6%
- inhibition at 100 µg/mL [1]: 25.4 ± 0.5%
- inhibition at 50 µg/mL [2]: 20.3 ± 3.1%
- inhibition at 100 µg/mL [2]: 31.5 ± 2.1%

SMILES: CCOP(=O)(OCC)Oc1ccccc1/C=C/C(=O)/C=C/c1cccc([N+](=O)[O-])c1 [3h]
- inhibition at 50 µg/mL [1]: 48.5 ± 4.2%
- inhibition at 100 µg/mL [1]: 54.8 ± 3.8%
- inhibition at 50 µg/mL [2]: 78.1 ± 1.4%
- inhibition at 100 µg/mL [2]: 86.5 ± 1.9%
- EC50 [2]: 19.1 µg/mL (≈ 44.3 µM)

SMILES: COP(=O)(OC)Oc1ccccc1/C=C/C(=O)/C=C/c1ccc(Br)cc1 [3n]
- inhibition at 50 µg/mL [1]: 2.5 ± 0.9%
- inhibition at 100 µg/mL [1]: 16.1 ± 3.8%
- inhibition at 50 µg/mL [2]: 18.8 ± 1.1%
- inhibition at 100 µg/mL [2]: 23.8 ± 5.3%

SMILES: COc1ccc(/C=C/C(=O)/C=C/c2ccccc2OP(=O)(OC)OC)cc1 [3c]
- inhibition at 50 µg/mL [1]: 53.5 ± 2.5%
- inhibition at 100 µg/mL [1]: 57.5 ± 2.1%
- inhibition at 50 µg/mL [2]: 23.4 ± 0.9%
- inhibition at 100 µg/mL [2]: 25.5 ± 0.9%

SMILES: COP(=O)(OC)Oc1ccccc1/C=C/C(=O)/C=C/c1cccc(C(F)(F)F)c1 [3p]
- inhibition at 50 µg/mL [1]: 11.5 ± 1.8%
- inhibition at 100 µg/mL [1]: 20.2 ± 0.8%
- inhibition at 50 µg/mL [2]: 21.8 ± 1.5%
- inhibition at 100 µg/mL [2]: 25 ± 3.1%

SMILES: S=c1[nH]nc(NCNc2n[nH]c(=S)s2)s1 [Bismerthiazol, bismerthiazol, reference compound]
- Antibacterial activity (inhibition rate) against Xac [1]: 70.3±2.8% and 54.9 ± 5.5%
- EC50 against Xac [1]: 44.5 µg/mL (≈ 160 µM)
- Antibacterial activity (inhibition rate) against Xoo ([2]; 50 μg/mL): 45.2 ± 2.0%
- Antibacterial activity (inhibition rate) against Xoo ([2]; 100 μg/mL): 64.9 ± 3.9%
- EC50 against Xoo [2]: 58.8 µg/mL (≈ 211 µM)

SMILES: COP(=O)(OC)Oc1ccccc1/C=C/C(=O)/C=C/c1ccc([N+](=O)[O-])cc1 [3i]
- inhibition at 50 µg/mL [1]: 50.8 ± 4.2%
- inhibition at 100 µg/mL [1]: 50.9 ± 4.5%
- inhibition at 50 µg/mL [2]: 43.9%
- inhibition at 100 µg/mL [2]: 56.6 ± 1.3%

SMILES: CCOP(=O)(OCC)Oc1ccccc1/C=C/C(=O)/C=C/c1ccc(OC)cc1 [3d]
- inhibition at 50 µg/mL [1]: 34.9 ± 1.5%
- inhibition at 100 µg/mL [1]: 46.4 ± 1.1%
- inhibition at 50 µg/mL [2]: 32.6 ± 2.2%
- inhibition at 100 µg/mL [2]: 35.7 ± 1.1%

SMILES: CCOP(=O)(OCC)Oc1ccccc1/C=C/C(=O)/C=C/c1ccccc1 [3m]
- inhibition at 50 µg/mL [1]: 18 ± 2.9%
- inhibition at 100 µg/mL [1]: 27.4 ± 0.6%
- inhibition at 50 µg/mL [2]: 2.5 ± 5.7%
- inhibition at 100 µg/mL [2]: 28.7 ± 9.1%

SMILES: COP(=O)(OC)Oc1ccccc1/C=C/C(=O)/C=C/c1cccc(C)c1 [3r]
- inhibition at 50 µg/mL [1]: 10.3 ± 2.5%
- inhibition at 100 µg/mL [1]: 20.5 ± 1.2%
- inhibition at 50 µg/mL [2]: 21 ± 2.2%
- inhibition at 100 µg/mL [2]: 42.4 ± 1.4%

SMILES: CCOP(=O)(OCC)Oc1ccccc1/C=C/C(=O)/C=C/c1ccc(Br)cc1 [3o]
- inhibition at 50 µg/mL [1]: 23 ± 2.7%
- inhibition at 100 µg/mL [1]: 28.4 ± 3.4%
- inhibition at 50 µg/mL [2]: 19.9 ± 3.7%
- inhibition at 100 µg/mL [2]: 31.4 ± 2.2%

SMILES: CCOP(=O)(OCC)Oc1ccccc1/C=C/C(=O)/C=C/c1ccc([N+](=O)[O-])cc1 [3j]
- inhibition at 50 µg/mL [1]: 52.9 ± 5.4%
- inhibition at 100 µg/mL [1]: 61.9 ± 1.1%
- inhibition at 50 µg/mL [2]: 81.4 ± 0.9%
- inhibition at 100 µg/mL [2]: 85.5 ± 0.8%
- EC50 [2]: 17.7 µg/mL (≈ 41 µM)

SMILES: Nc1nnc([S-])s1.Nc1nnc([S-])s1.[Cu+2] [Thiodiazole-copper, thiodiazole-copper, reference compound]
- EC50 against Xac [1]: 87.9 µg/mL
- Antibacterial activity (inhibition rate) against Xoo ([2]; 50 μg/mL): 37.2 ± 3.2%
- Antibacterial activity (inhibition rate) against Xoo ([2]; 100 μg/mL): 50.2 ± 0.9%
- EC50 against Xoo [2]: 78.7 µg/mL

SMILES: CCOP(=O)(OCC)Oc1ccccc1/C=C/C(=O)/C=C/c1ccc(C)cc1 [3k]
- inhibition at 50 µg/mL [1]: 47.7 ± 3.1%
- inhibition at 100 µg/mL [1]: 52.6 ± 2.9%
- inhibition at 50 µg/mL [2]: 39.4 ± 0.4%
- inhibition at 100 µg/mL [2]: 41.5 ± 0.6%

SMILES: COP(=O)(OC)Oc1ccccc1/C=C/C(=O)/C=C/c1ccccc1 [3l]
- inhibition at 50 µg/mL [1]: 29.2 ± 4.3%
- inhibition at 100 µg/mL [1]: 49.4 ± 8%
- inhibition at 50 µg/mL [2]: 16.7 ± 5.3%
- inhibition at 100 µg/mL [2]: 35.9 ± 2.9%

SMILES: CCOP(=O)(OCC)Oc1ccccc1/C=C/C(=O)/C=C/c1cccc(C)c1 [3s]
- inhibition at 50 µg/mL [1]: 8.5 ± 3.8%
- inhibition at 100 µg/mL [1]: 27.4 ± 1.7%
- inhibition at 50 µg/mL [2]: 12.5 ± 6%
- inhibition at 100 µg/mL [2]: 29.5 ± 4.8%

SMILES: CCOP(=O)(OCC)Oc1ccccc1/C=C/C(=O)/C=C/c1ccccc1Cl [3f]
- inhibition at 50 µg/mL [1]: 52.9 ± 2.1%
- inhibition at 100 µg/mL [1]: 53.1 ± 2.1%
- inhibition at 50 µg/mL [2]: 35.7 ± 3.4%
- inhibition at 100 µg/mL [2]: 36.4 ± 3.1%

SMILES: CCOP(=O)(OCC)Oc1ccccc1/C=C/C(=O)/C=C/c1ccc(Cl)cc1 [3b]
- inhibition at 50 µg/mL [1]: 53 ± 3.6%
- inhibition at 100 µg/mL [1]: 53.1 ± 3.2%
- EC50 [1]: 34.1 µg/mL (≈ 81 µM)
- inhibition at 50 µg/mL [2]: 35 ± 4.4%
- inhibition at 100 µg/mL [2]: 37 ± 2.9%

SMILES: COP(=O)(OC)Oc1ccccc1/C=C/C(=O)/C=C/c1ccc(Cl)cc1 [3a, 2-((1E,4E)-5-(4-chlorophenyl)-3-oxopenta-1,4-dien-1-yl)phenyl dimethyl phosphate]
- inhibition at 50 µg/mL [1]: 50.6 ± 4.6%
- inhibition at 100 µg/mL [1]: 59.7 ± 1.8%
- EC50 [1]: 45 µg/mL
- inhibition at 50 µg/mL [2]: 83.9 ± 2.1%
- inhibition at 100 µg/mL [2]: 85 ± 2.1%
- EC50 [2]: 35.8 µg/mL
